One assay relates to Colo205 cells. Nature of the assay: Analysis of Cell Proliferation and Viability. Format: cell-based. Conditions: Homo sapiens, COLO 205, 72 hours, lower bound 100 nM, upper bound 1 uM nM [sic], read-out: IC50 values after 72 hours. Here is the method: Compounds were screened for their ability to inhibit cell proliferation and their effects on cell viability using Colo205 cells obtained from ECACC and using the assay shown below.
Colo205 cells were seeded in 96 well plates and serially diluted compound was added to the wells in duplicate. Control groups included untreated cells, the compound diluent (0.1% DMSO alone) and culture medium without cells. The cells were then incubated for 72 or 96 hrs at 37 C in an atmosphere of 5% CO2/95% humidity.
To measure proliferation, 3 h prior to the end of the experiment 0.5 μCi of 3H thymidine was added to each well. Cells were then harvested and the incorporated radioactivity counted on a Wallac microplate beta-counter. Cell viability was assessed using Promega CellTiter 96AQ to measure MTS conversion. Dose response curves were calculated using either Prism 3.0 (GraphPad) or SoftMax Pro 4.3.1 LS (Molecular Devices) software.

The target in the next assay is T1, Aurora-2 (Aurora A) (Homo sapiens, UniProt O14965).
T1 sequence (O14965 1-403): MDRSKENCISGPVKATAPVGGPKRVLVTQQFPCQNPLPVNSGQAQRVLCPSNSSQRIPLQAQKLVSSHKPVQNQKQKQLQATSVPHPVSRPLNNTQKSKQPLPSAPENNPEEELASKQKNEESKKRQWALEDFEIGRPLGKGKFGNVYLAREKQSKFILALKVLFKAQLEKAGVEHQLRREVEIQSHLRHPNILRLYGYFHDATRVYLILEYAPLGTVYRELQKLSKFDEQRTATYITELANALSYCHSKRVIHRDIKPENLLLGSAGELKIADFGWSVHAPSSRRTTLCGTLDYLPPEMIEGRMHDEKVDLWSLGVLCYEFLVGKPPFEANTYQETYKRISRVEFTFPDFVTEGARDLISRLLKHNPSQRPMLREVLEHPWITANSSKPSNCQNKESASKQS
Nature of the assay: Aurora-2 (Aurora A) Inhibition Assay (coupled enzyme assay). Format: biochemical. Conditions: 400 μM ATP, 40 nM Aurora-2, 30° C.; read-out: inhibit Aurora A, Ki. Here is the method: Compounds were screened for their ability to inhibit Aurora-2 using a standard coupled enzyme assay (Fox et al., Protein Sci., (1998) 7, 2249). Assays were carried out in a mixture of 100 mM Hepes (pH7.5), 10 mM MgCl2, 1 mM DTT, 25 mM NaCl, 2.5 mM phosphoenolpyruvate, 300 μM NADH, 30 μg/ml pyruvate kinase and 10 μg/ml lactate dehydrogenase. Final substrate concentrations in the assay were 400 μM ATP (Sigma Chemicals) and 570 μM peptide (Kemptide, American Peptide, Sunnyvale, Calif.). Assays were carried out at 30° C. and in the presence of 40 nM Aurora-2.
An assay stock buffer solution was prepared containing all of the reagents listed above, with the exception of Aurora-2 and the test compound of interest. 55 μl of the stock solution was placed in a 96 well plate followed by addition of 2 μl of DMSO stock containing serial dilutions of the test compound (typically starting from a final concentration of 7.5 μM). The plate was preincubated for 10 minutes at 30° C. and the reaction initiated by addition of 10 μl of Aurora-2. Initial reaction rates were determined with a Molecular Devices SpectraMax Plus plate reader over a 10 minute time course. IC50 and Ki data were calculated from non-linear regression analysis using the Prism software package (GraphPad Prism version 3.0cx for Macintosh, GraphPad Software, San Diego Calif., USA).

A further assay addresses Aurora-1 (Aurora B) (Homo sapiens, UniProt Q96GD4). Nature of the assay: Aurora-1 (Aurora B) Inhibition Assay (Radiometric). It counts as biochemical. The note with it: 800 μM ATP, 25° C., read-out: inhibit Aurora A, Ki (printed under the Aurora-1 (Aurora B) assay). Here is the method: An assay buffer solution was prepared which consisted of 25 mM HEPES (pH 7.5), 10 mM MgCl2, 0.1% BSA and 10% glycerol. A 22 nM Aurora-B solution, also containing 1.7 mM DTT and 1.5 mM Kemptide (LRRASLG), was prepared in assay buffer. To 22 μL of the Aurora-B solution, in a 96-well plate, was added 2 μl of a compound stock solution in DMSO and the mixture allowed to equilibrate for 10 minutes at 25° C. The enzyme reaction was initiated by the addition of 16 μl stock [γ-^33P]-ATP solution (˜20 nCi/μL) prepared in assay buffer, to a final assay concentration of 800 μM. The reaction was stopped after 3 hours by the addition of 16 μL 500 mM phosphoric acid and the levels of ^33P incorporation into the peptide substrate were determined by the following method.
A phosphocellulose 96-well plate (Millipore, Cat no. MAPHNOB50) was pre-treated with 100 μL of a 100 mM phosphoric acid prior to the addition of the enzyme reaction mixture (40 μL). […] Levels of non-enzyme catalyzed background radioactivity were determined by adding 16 μL of the 500 mM phosphoric acid to control wells, containing all assay components (which acts to denature the enzyme), prior to the addition of the [γ-^33P]-ATP solution. Levels of enzyme catalyzed ^33P incorporation were calculated by subtracting mean background counts from those measured at each inhibitor concentration. […]

The target in assay [1] is N-terminally truncated (Δ27) Abl kinase (Homo sapiens, UniProt P00519). Description: Abl Kinase Activity Inhibition Assay (coupled enzyme system). Conditions: 110 μM ATP, 21 nM Abl kinase, 30° C.; read-out: inhibit Abl kinase, Ki value. It counts as biochemical. The procedure: Compounds were screened for their ability to inhibit N-terminally truncated (Δ27) Abl kinase activity using a standard coupled enzyme system (Fox et al., Protein Sci., 7, pp. 2249 (1998)). Reactions were carried out in a solution containing 100 mM HEPES (pH 7.5), 10 mM MgCl2, 25 mM NaCl, 300 μM NADH, 1 mM DTT and 3% DMSO. Final substrate concentrations in the assay were 110 μM ATP (Sigma Chemicals, St Louis, Mo.) and 70 μM peptide (EAIYAAPFAKKK, American Peptide, Sunnyvale, Calif.). Reactions were carried out at 30° C. and 21 nM Abl kinase. Final concentrations of the components of the coupled enzyme system were 2.5 mM phosphoenolpyruvate, 200 μM NADH, 60 μg/ml pyruvate kinase and 20 μg/ml lactate dehydrogenase.
Sequence of N-terminally truncated (Δ27) Abl kinase (P00519 whole entry, stated change not applied, the tested form may be a part): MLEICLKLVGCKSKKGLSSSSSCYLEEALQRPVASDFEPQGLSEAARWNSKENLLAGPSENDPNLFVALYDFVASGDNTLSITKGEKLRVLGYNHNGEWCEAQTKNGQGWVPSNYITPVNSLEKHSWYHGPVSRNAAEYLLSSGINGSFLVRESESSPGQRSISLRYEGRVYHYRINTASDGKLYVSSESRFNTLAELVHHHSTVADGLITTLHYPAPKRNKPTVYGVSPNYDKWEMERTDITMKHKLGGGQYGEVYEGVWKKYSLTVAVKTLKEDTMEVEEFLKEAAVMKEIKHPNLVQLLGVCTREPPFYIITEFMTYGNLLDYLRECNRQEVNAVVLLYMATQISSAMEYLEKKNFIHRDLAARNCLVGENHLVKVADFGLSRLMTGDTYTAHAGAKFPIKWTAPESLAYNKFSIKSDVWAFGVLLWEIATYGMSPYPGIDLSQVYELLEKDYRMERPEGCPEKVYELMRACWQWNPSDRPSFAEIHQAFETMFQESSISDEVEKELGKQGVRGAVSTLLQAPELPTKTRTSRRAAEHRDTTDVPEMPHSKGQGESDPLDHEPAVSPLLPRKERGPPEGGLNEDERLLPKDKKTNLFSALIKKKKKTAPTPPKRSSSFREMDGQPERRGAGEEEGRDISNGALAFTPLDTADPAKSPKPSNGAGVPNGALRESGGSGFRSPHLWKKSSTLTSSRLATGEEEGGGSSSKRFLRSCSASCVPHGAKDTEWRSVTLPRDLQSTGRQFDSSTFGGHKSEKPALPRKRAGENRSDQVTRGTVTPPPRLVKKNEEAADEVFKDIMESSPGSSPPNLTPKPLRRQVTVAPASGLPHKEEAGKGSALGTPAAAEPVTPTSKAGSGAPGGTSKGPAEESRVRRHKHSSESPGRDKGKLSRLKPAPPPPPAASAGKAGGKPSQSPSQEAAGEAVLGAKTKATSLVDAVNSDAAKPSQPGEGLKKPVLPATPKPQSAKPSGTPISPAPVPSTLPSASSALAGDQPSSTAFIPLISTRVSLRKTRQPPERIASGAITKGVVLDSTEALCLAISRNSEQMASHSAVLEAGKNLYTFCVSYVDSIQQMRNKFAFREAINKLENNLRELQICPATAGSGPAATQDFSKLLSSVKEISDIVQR
An assay stock buffer solution was prepared containing all of the reagents listed above with the exception of ATP and the test compound of interest. The assay stock buffer solution (60 μl) was incubated in a 96 well plate with 2 μl of the test compound of interest at final concentrations typically spanning 0.002 μM to 30 μM at 30° C. for 10 min. […] Rates of reaction were obtained using a Molecular Devices Spectramax plate reader (Sunnyvale, Calif.) over 10 min at 30° C. The Ki values were determined from the residual rate data as a function of inhibitor concentration using nonlinear regression (Prism 3.0, Graphpad Software, San Diego, Calif.).

In general, IC50 refers to the midpoint of a concentration-inhibition curve. Broadly, the Ki is the dissociation constant of the complex between target and ligand, obtained from inhibition or displacement.

Sequence of Aurora-1 (Aurora B) (Q96GD4 whole entry): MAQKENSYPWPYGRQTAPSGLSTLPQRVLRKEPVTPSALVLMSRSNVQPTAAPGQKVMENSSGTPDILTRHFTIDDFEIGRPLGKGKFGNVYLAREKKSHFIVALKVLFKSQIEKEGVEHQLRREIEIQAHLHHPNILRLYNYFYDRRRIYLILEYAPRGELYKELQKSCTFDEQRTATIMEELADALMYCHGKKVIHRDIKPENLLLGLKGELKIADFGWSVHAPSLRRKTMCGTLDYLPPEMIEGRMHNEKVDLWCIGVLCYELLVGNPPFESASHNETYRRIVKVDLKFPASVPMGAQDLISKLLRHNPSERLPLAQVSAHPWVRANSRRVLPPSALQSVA

In the case of `Cc1cc(Nc2cc(N3CCN(C(C)(C)CF)CC3)nc(Sc3cc(F)c4nc(C)ccc4c3)n2)[nH]n1` [Compound I-6], the IC50 in the assay with Colo205 cells fell in the range of 100 to 1000 nM.

As to `Cc1cc(Nc2cc(N3CCN(C4CCN(C)CC4)CC3)nc(Sc3cc(F)c4nc(C)ccc4c3)n2)[nH]n1` [Compound I-13, 2-(8-fluoro-2-methylquinolin-6-ylthio)-N-(3-methyl-1H-pyrazol-5-yl)-6-(4-(1-methylpiperidin-4-yl)piperazin-1-yl)pyrimidin-4-amine], the values for the Ki (on Aurora-2 (Aurora A); at Aurora-1 (Aurora B); in assay [1]) were 1 to 2 nM, 10 to 20 nM and less than 25 nM, respectively.

Regarding `Cc1cc(Nc2cc(N3CCN(C(C)(C)CF)CC3)nc(Sc3ccc4nc(C(F)(F)F)n(C)c4c3)n2)[nH]n1` [Compound I-21], the concentration for half-maximal inhibition (IC50) with Colo205 cells lay in the range of 100 to 1000 nM.

Consider `Cc1cc(Nc2cc(N3CCN(C4CC4)CC3)nc(Sc3cc(F)c4nc(C)ccc4c3)n2)[nH]n1` [Compound I-15], for which, in the assay with Colo205 cells, the IC50 fell in the range of 100 to 1000 nM.

For the molecule `Cc1cc(Nc2cc(N3CCN(C4CC4)CC3)nc(Sc3ccc4nc(C(F)(F)F)cn4c3)n2)[nH]n1` [Compound I-14], the 50% inhibitory concentration (IC50) with Colo205 cells was in the range of 100 to 1000 nM.

For `Cc1cc(Nc2cc(N3CCN(CC(F)(F)F)CC3)nc(Sc3cc(F)c4nc(C)ccc4c3)n2)[nH]n1` [Compound I-23], the IC50 in the assay on Colo205 cells lay within 100 to 1000 nM.

`Cc1cc(Nc2cc(N3CCN(CC(F)(F)F)CC3)nc(Sc3ccc4nc(C(F)(F)F)cn4c3)n2)[nH]n1` [Compound I-22]: the IC50 in the assay with Colo205 cells lay in the range of 100 to 1000 nM.

In the case of `Cc1cc(Nc2cc(N3CCN(C(C)(C)CF)CC3)nc(Sc3ccc4nc(C(F)(F)F)cn4c3)n2)[nH]n1` [Compound I-11], the IC50 in the assay on Colo205 cells is 100 to 1000 nM.

For the origin of these results see US8455507B2, “Aminopyrimidines useful as kinase inhibitors” (Vertex Pharmaceuticals Incorporated, priority 2007, dated 2013).
